PMC11546786, “Designing Analogs of SAAP-148 with Enhanced Antimicrobial and Anti-LPS Activities” (International Journal of Molecular Sciences, 2024)
Ends that are not written are not given here.

Columns and labels:
[1] = tested on: Gram-negative bacteria (E. coli, P. aeruginosa, K. pneumoniae); assay: Geometric mean of MICs against Gram-negative bacteria; format: cell-based; set-up: unit not given here
Experimental: (§1) The antibacterial activities of the peptides against […] were evaluated using a modified version of the Clinical Laboratory and Standards Institute (CLSI) broth microdilution method, as previously described. Briefly, the bacteria were cultured in liquid LB medium (comprising 10 g/L tryptone, 5 g/L yeast extract, and 10 g/L NaCl) at 37 °C until reaching mid-log phase. Subsequently, the bacterial concentration was adjusted to 1 × 10^6 colony-forming units (CFU)/mL. The peptides were then diluted serially with phosphate-buffered saline (PBS), followed by the addition of 50 μL of the diluted peptides to 50 μL of the bacterial suspension in a 96-well plate (Corning Inc., Lowell, MA, USA). After incubating at 37 °C for 18 to 20 h, the absorbance of each well was measured using a multi-well microplate reader (SpectraMax M5; Molecular Devices, Sunnyvale, CA, USA) at 600 nm.

[2] = Reversed-phase HPLC retention time as measure of peptide hydrophobicity; format: physicochemical; conditions: retention time by reverse-phase HPLC, reflects hydrophobicity difference between analogues
Text: The physicochemical parameters crucial for the antimicrobial activity of AMPs have been identified, encompassing net charge, helicity, hydrophobicity, and amphipathicity. The hydropathicity, mean relative hydrophobic moment, and charge of peptides were predicted using the HeliQuest (https://heliquest.ipmc.cnrs.fr/ (accessed on 12 March 2024)). Lysine is a hydrophilic amino acid, and its substitution leads to a decrease in the hydrophobicity of the SAAP-148 analogue. The anticipated results are consistent, with the degree of reduction in […] varying depending on the position at which lysine is substituted (Table 2). The amphipathicity of the peptides, as denoted by the μH (mean relative hydrophobic moment), is elaborated on in Table 2. The hydrophobic moment of SAAP-148 analogues was decreased except for SAAP-10, which is on account of the substitution occurring on the18th residue. (Figure 1) The 18th residue of SAAP-148 is glutamine, a polar amino acid residue, located at the junction of the hydrophobic and hydrophilic surfaces of the SAAP-148 α-helix. […] The retention time data determined by reversed-phase high-performance liquid chromatography (RP-HPLC) reflects the hydrophobicity difference between peptide analogues. It is well documented that the formation of a hydrophobic-binding domain due to peptide secondary structure can affect peptide interactions with reversed-phase matrices. This effect was observed particularly for amphipathic α-helical peptides. Given this preferred binding domain, amphipathic α-helical peptides are considerably more retentive than non-amphipathic peptides with the same amino acid composition.
This phenomenon was particularly evident in the case of amphipathic α-helical peptides. […] This discrepancy may be attributed to the lack of a well-defined α-helical structure in SAAP-148 and its analogues (Figure S1).

[3] = tested on: Klebsiella pneumonia (1.1736); format: cell-based, Klebsiella pneumoniae
Text: (§2) The LL-37, SAAP-148 and its analogues peptides were synthesized according to the standard Fmoc procedure. The Fmoc-protected resin and monomers are first treated with a basic solvent (piperidine) to remove the amino protecting groups. The carboxyl group of the next amino acid is activated by an activator. The activated monomer reacts with the free amino group to form a peptide bond. These two steps are repeated in a cycle until the synthesis is complete. After synthesis, the peptide is eluted from the column and purified by reverse-phase semipreparative high-performance liquid chromatography as detailed in Table 1. The peptides were dissolved in PBS to create a 1000 μmol/L stock solution for subsequent use. The purity of the synthetic peptide exceeded 95%. Blood samples from healthy donors were obtained from the Fifth Medical Center of Chinese PLA General Hospital (Beijing, China). Human normal lung epithelial cells (BEAS-2B) and mouse mononuclear macrophages cells (RAW 264.7) were sourced from Beyotime Biotechnology (Beijing, China), along with the Enhanced Cell Counting Kit-8 (CCK-8) and nitric oxide detection kit. RPMI-1640 and DMEM were procured from Merck (Darmstadt, Germany), while FBS was obtained from ExCell Bio (Shanghai, China). LPS-B5 (from E. coli 055:B5) was procured from Invivogen (Toulouse, France). Five bacterial strains, including Escherichia coli (1.8732), Pseudomonas aeruginosa (1.2421), Klebsiella pneumonia (1.1736) as Gram-negative bacteria, and Staphylococcus aureus (1.8721) and Staphylococcus epidermidis (1.4260) as Gram-positive bacteria, were procured from the China General Microbiological Culture Collection Centre (CGMCC) (Beijing, China).
as §1

[4] = tested on: Gram-positive bacteria (S. aureus, S. epidermidis); assay: Geometric mean of MICs against Gram-positive bacteria; format: cell-based; set-up: unit not given here
Experimental: as §1

[5] = tested on: LPS-induced NO in RAW264.7 macrophages; assay: Inhibition of LPS-induced NO production, Griess assay; format: cell-based, mouse; conditions: 6.25 μM peptide, LPS 100 ng/mL, 24 h, Griess assay (Figure 4)
Text: LL-37 is a promising peptide for the regulation of inflammation and mitigation of endotoxin impact due to its ability to directly bind to LPS and counteract its biological effects, such as the inhibition of interleukin-6 (IL-6), interleukin 1β (IL-1β), and LPS-induced nitric oxide (NO). We conducted a series of experiments to assess the effectiveness of SAAP-148 and its analogues in reducing NO production by mouse mononuclear pacrophages cells (RAW264.7) after LPS stimulation. […] Subsequently, we employed a Griess assay to evaluate the levels of nitrite in RAW264.7 cells following treatment with SAAP-148 and its analogues, both with and without LPS treatment.
RAW264.7 cells were cultured in DMEM supplemented with 10% (v/v) FBS, 2 mM L-glutamine, 100 U/mL penicillin, and […] streptomycin, and maintained in a humidified incubator with 5% CO2 at 37 °C. Subsequently, RAW264.7 cells (1.5 × 10^4 cells/well) were seeded in 96-well plates (Corning Inc., Lowell, MA, USA) and incubated overnight. […] After incubation for 24 h, the culture supernatant was collected, and NO assay was performed according the instruction. The absorbance of the sample was measured at 550 nm.

[6] = tested on: Staphylococcus epidermidis (1.4260); format: cell-based
Text: as §2, §1

[7] = tested on: Staphylococcus aureus (1.8721); format: cell-based
Text: as §2, §1

[8] = tested on: Pseudomonas aeruginosa (1.2421); format: cell-based
Text: as §2, §1

[9] = tested on: Escherichia coli (1.8732); format: cell-based
Text: as §2, §1

[10] = tested on: human erythrocytes versus five bacterial strains; assay: Therapeutic index (MHC/GM of MIC); conditions: for TI (MHC/MIC): ratio of MHC to geometric mean of MIC (five strains); for Fold (TI of analogue compared with SAAP-148): TI change relative to SAAP-148
Experimental: The geometric mean of minimum inhibitory concentration (MIC) values (GM) from the five strains was calculated to provide a comprehensive assessment of antimicrobial activity, as presented in Table 4.
The therapeutic index (TI) is a widely utilized parameter for indicating the specificity of antimicrobial agents, which is determined by the ratio of MHC (hemolytic activity) and MIC (antimicrobial activity). Consequently, larger TI values signify greater antimicrobial specificity. The TI can be enhanced through one of three mechanisms: increasing antimicrobial activity, reducing hemolytic activity while maintaining antimicrobial activity, or a combination of both augmenting antimicrobial activity and diminishing hemolytic activity.

[11] = CD spectra, secondary structure by BeStSel; format: physicochemical; conditions: 30 μM SDS as printed, 100 μM peptide, 25 °C
Experimental: CD spectra (Figure S1) were acquired using a JASCO J-1500 spectropolarimeter (JASCO Inc., Easton, MD, USA) in 0.1 cm pathlength cells under nitrogen at 25 °C. The spectra were recorded in the range of 190 to 250 nm at a peptide concentration of 100 μM in SDS. Secondary structure was determined using the BeStSel server. Hydropathicity, mean relative hydrophobic moment, and charge of peptides were predicted using the HeliQuest (https://heliquest.ipmc.cnrs.fr/ (accessed on 12 March 2024)). The 3D structure of SAAP-148 and its analogues (Figure S2) was predicted using PEP-FOLD4 servers (https://bioserv.rpbs.univ-paris-diderot.fr/services/PEP-FOLD4/ (accessed on 19 June 2024)).

[12] = tested on: five bacterial strains; assay: MICs against all five bacterial strains (geometric mean, range); format: cell-based; set-up: unit not given here; conditions: geometric mean of MICs against all five bacterial strains
Experimental: as §1

[13] = tested on: human erythrocytes; assay: Haemolytic activity; format: cell-based
Experimental: The haemolytic activity of the peptides was evaluated using a standard procedure with minor adjustments. Fresh human erythrocytes were washed thrice and subsequently resuspended at 1.25% haematocrit in PBS. Forty microlitres PBS-diluted peptide solution was added to a 96-well plate (Corning Inc., Lowell, MA, USA), and 160 μL of erythrocytes was added. After incubation at 37 °C for 30 min, the samples were centrifuged, and the absorbance of the supernatant was measured at 450 nm using a multi-well microplate reader (SpectraMax M5; Molecular Devices, Sunnyvale, CA, USA) and compared with the 100% haemolysis caused by 0.1% Triton X-100. The percentage of haemolysis was calculated according to the equation: Haemolysis%=Asample−Ablank/Atriton−Ablank×100

Substance | GM to G− [1] | Rt [2] [min] | MIC K. pneumoniae [3] [µM] | GM to G+ [4] | NO inhibition ability [5] | MIC S. epidermidis [6] [µM] | MIC S. aureus [7] [µM] | MIC P. aeruginosa [8] [µM] | MIC E. coli [9] [µM] | TI (MHC/MIC) [10] | Others [11] [%] | Turn [11] [%] | α-Helix [11] [%] | β-Antiparallel [11] [%] | β-Parallel [11] [%] | MIC (GM) [12] | Fold (TI of analogue compared with SAAP-148) [10] | haemolytic activity compared with SAAP-148 [13]
LKRVWKRVFKLLKRYWRQLKKPVR-NH2 [SAAP-148] | 4.96 | 12.416 | 6.25 | 12.51 | comparable efficacy to LL-37 | 3.13 | 50.00 | 3.13 | 6.25 | 0.11 | 0 | 0 | 93.5 | 6.5 | 0 | 7.18 |  | 
KKRVWKRVFKLLKRYWRQLKKPVR-NH2 [SAAP-1] | 3.94 | 11.419 | 6.25 | 12.51 |  | 3.13 | 50.00 | 3.13 | 3.13 | 0.12 | 0 | 0 | 93.5 | 6.5 | 0 | 6.25 | 1.1 | comparable hemolytic activity to SAAP-148
LKRKWKRVFKLLKRYWRQLKKPVR-NH2 [SAAP-2] | 4.97 | 12.532 | 12.50 | 12.51 |  | 3.13 | 50.00 | 3.13 | 3.13 | 0.11 | 0 | 0 | 93.5 | 6.5 | 0 | 7.18 | 1 | comparable hemolytic activity to SAAP-148
